Laboratory results taken from publication PMC6421115 (The Journal of eukaryotic microbiology, 2018).
Where a name gives a salt, the structure may show the parent alone. Read-outs that look alike come from different tables or passages of the source. Marks after values point to notes of the source that are not given here.

Columns and labels:
C. parvum [1] = assay: Efficacy against C. parvum growth in vitro in HCT-8 cells, qRT-PCR assay; conditions: for Safety Interval (TC50/EC50): HCT-8 TC50 / C. parvum EC50
HCT-8 cells [2] = assay: Cytotoxicity on host cells, MTT assay
[3] = target: T1, human (Homo sapiens) HK-I (HsHK1) (Homo sapiens, UniProt P19367); assay: HsHK1 inhibition, HK/G6PDH-coupled assay; assay type: biochemical
T1 sequence (P19367 1-917): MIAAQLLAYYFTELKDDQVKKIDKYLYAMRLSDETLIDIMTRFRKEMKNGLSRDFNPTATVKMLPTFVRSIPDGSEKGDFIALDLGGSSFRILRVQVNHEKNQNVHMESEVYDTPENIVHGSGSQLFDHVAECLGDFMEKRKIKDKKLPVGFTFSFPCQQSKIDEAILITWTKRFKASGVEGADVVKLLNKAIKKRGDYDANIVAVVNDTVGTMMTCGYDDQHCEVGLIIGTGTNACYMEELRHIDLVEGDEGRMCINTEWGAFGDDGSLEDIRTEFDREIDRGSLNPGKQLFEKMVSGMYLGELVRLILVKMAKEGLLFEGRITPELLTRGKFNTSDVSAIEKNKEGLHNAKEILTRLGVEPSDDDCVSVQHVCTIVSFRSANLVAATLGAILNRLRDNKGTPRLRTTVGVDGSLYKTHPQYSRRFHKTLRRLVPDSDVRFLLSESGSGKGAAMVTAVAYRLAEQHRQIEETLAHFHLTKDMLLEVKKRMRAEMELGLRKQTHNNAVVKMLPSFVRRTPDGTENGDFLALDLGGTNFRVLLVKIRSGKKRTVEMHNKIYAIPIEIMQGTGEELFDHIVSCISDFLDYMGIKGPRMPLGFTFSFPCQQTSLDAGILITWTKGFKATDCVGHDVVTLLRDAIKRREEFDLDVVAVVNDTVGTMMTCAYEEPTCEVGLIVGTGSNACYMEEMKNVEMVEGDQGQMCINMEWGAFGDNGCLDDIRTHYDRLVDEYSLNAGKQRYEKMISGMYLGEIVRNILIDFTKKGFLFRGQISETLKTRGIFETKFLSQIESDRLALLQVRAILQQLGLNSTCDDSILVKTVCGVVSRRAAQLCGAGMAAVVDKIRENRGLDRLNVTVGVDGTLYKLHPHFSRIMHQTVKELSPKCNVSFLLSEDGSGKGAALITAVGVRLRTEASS

[4] = target: T2, C. parvum hexokinase (CpHK) (Cryptosporidium parvum, UniProt Q5CWT5); assay: biochemical; assay type: biochemical; conditions: for Mode of inhibition of CpHK: inhibitory kinetics; for Selectivity on enzyme: HsHK1 IC50 versus CpHK IC50
C. parvum [5] = conditions: read-out: Efficacy on C. parvum (EC50); in vitro; ref Eltahan et al, 2018; cited from earlier work
HCT-8 cells [6] = conditions: host cells; ref Eltahan et al, 2018; cited from earlier work
CpHK = target: T3, CpHK (Cryptosporidium parvum, UniProt Q5CWT5); assay: CpHK enzyme parameters towards substrates; assay type: biochemical
T3 sequence (Q5CWT5 1-518): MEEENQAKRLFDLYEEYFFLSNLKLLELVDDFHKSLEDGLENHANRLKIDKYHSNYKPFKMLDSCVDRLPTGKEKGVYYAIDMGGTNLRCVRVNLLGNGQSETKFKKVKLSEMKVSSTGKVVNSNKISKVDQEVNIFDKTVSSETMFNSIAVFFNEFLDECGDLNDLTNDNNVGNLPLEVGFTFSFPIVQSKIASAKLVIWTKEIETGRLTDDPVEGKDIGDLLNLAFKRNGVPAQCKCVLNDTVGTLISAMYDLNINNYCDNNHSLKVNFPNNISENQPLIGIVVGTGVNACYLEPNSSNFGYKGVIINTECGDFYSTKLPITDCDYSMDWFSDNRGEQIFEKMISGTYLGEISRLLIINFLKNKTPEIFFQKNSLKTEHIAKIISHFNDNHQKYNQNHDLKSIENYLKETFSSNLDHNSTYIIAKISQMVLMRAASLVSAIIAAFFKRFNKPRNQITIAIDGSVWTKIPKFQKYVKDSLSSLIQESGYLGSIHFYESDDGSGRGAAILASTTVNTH

HsHK1 = target: T4, HsHK1 (Homo sapiens, UniProt P19367); assay: HsHK1 enzyme parameters towards substrates; assay type: biochemical
T4 sequence (P19367 1-917): T1 sequence (P19367 1-917)

[7] = target: T2, C. parvum hexokinase (CpHK); conditions: ref Yu et al. 2014, cited from earlier work
[8] = substrate: O=CC[C@@H](O)[C@H](O)[C@H](O)CO; assay: purified protein, by the assay type; conditions: other: compound as substrate, 37 °C, pH 7.5
[9] = substrate: OC[C@H]1OC(O)[C@H](O)[C@@H](O)[C@@H]1O; assay: HsHK1 enzyme parameters towards substrates; assay type: biochemical, Homo sapiens; conditions: other: compound as substrate, 37 °C, pH 7.5
[10] = substrate: OC[C@H]1OC(O)[C@H](O)[C@@H](O)[C@@H]1O; assay: CpHK enzyme parameters towards substrates; assay type: biochemical, Cryptosporidium parvum; conditions: other: compound as substrate; pH 7.5
[11] = substrate: O=CC[C@@H](O)[C@H](O)[C@H](O)CO; assay: CpHK enzyme parameters towards substrates; assay type: biochemical, Cryptosporidium parvum; conditions: other: compound as substrate; pH 7.5
[12] = Cryptosporidium parvum, HCT-8, 44 h, read-out: In vitro efficacy (EC50)
[13] = Cryptosporidium parvum, HCT-8, read-out: Efficacy on C. parvum (EC50)

In the case of O=CC[C@@H](O)[C@H](O)[C@H](O)COP(=O)(O)O [2DG6P, 2-deoxy-D-glucose-6-phosphate], the EC50 (C. parvum [1]; [12]) is reported as 18000 µM, the “Safety Interval (TC50/EC50)” value (C. parvum [1]) is reported as >4.0 and the “Cytotoxicity (TC50)” value (HCT-8 cells [2]; 44 h treatment) is reported as >72000 µM.

With C[CH2][Hg][S]c1ccccc1C(=O)[O-].[Na+] [Thimerosal] the IC50 ([3]; read-out: Inhibition on HsHK1 (IC50), 37 °C, 1% DMSO) was 0.35 µM, the “Mode of inhibition of CpHK” value [4] was “mixed model of inhibition” and the IC50 ([4]; read-out: Inhibition on CpHK (IC50), 37 °C, 1% DMSO) was 2.3 µM. The EC50 (C. parvum [1]; read-out: Efficacy on C. parvum (EC50), in vitro) was 1.77 µM and the “Cytotoxicity (TC50)” value (HCT-8 cells [2]; host cells) was 18.5 µM.

Work on O=c1c2ccccc2[se]n1-c1ccccc1 [Ebselen, 2-phenyl-1,2-benzisoselenazol-3(2H)-one] yielded an IC50 [3] of 0.265 µM, an IC50 [4] of 0.241 µM and a Selectivity on enzyme [4] of 1.10. For the same molecule, the “Mode of inhibition of CpHK” value [4] was “noncompetitive inhibitor”, the “Reversibility of CpHK inhibition” value ([4]; not reversed by up to 50-fold dilution, from 100 to 2 μM) was “irreversible inhibitor” and the EC50 (C. parvum [5]) was 165 µM. For the same molecule, the “Cytotoxicity (TC50)” value (HCT-8 cells [6]) was 700 ^* μM.

Work on Oc1c(Cl)cc(Cl)c(Cl)c1Cc1c(O)c(Cl)cc(Cl)c1Cl [Hexachlorophene] yielded an IC50 [3] of 6.5 µM, an IC50 [4] of 8.8 µM and a Selectivity on enzyme [4] of 0.74. The “Mode of inhibition of CpHK” value [4] was “mixed model of inhibition”, the EC50 (C. parvum [1]; [13]) was 0.53 µM and the “Cytotoxicity (TC50)” value (HCT-8 cells [2]; host cells) was 100 µM.

With OC[C@H]1OC(O)[C@H](F)[C@@H](O)[C@@H]1O (stereo partly shown) [FDG, fluorodeoxyglucose] the IC50 ([3]; read-out: Effect on HsHK1, IC50, 37 °C) was 15200 µM, the IC50 ([4]; read-out: Effect on CpHK, IC50) was 3700 µM and the “Safety Interval (TC50/EC50)” value (C. parvum [1]) was > 240. The “Safety Interval (TC50/EC50)” value (C. parvum [1]; listed as 2FDG) was >240 and the EC50 (C. parvum [1]; read-out: In vitro efficacy (EC50), 44 h infection assay) was 300 µM.

In the case of CCCCC(CC)CNC(=N)NC(=N)NCCCCCCNC(=N)NC(=N)NCC(CC)CCCC (stereo not shown) [Alexidine•2HCl, alexidine dihydrochloride], the IC50 [3] is reported as 22.7 µM, the IC50 [4] is reported as 22.1 µM and the Selectivity on enzyme [4] is reported as 1.03. For the same molecule, the “Mode of inhibition of CpHK” value [4] was “noncompetitive inhibitor”, the EC50 (C. parvum [1]; [13]) was 8.1 µM and the “Cytotoxicity (TC50)” value (HCT-8 cells [2]; host cells) was 32.6 µM.

For O=CC[C@@H](O)[C@H](O)[C@H](O)CO [2DG, 2-deoxy-D-glucose], the IC50 [3] was 10100 µM, the IC50 [4] was 5750 µM and the EC50 (C. parvum [1]; [12]) was 540 µM. For the same molecule, the “Safety Interval (TC50/EC50)” value (C. parvum [1]) was 66.7, the “Ratio (2DG/glucose) of CpHK Vmax” value (CpHK) was 0.72 and the “Ratio (2DG/glucose) of CpHK Km” value (CpHK; fold lower affinity than for glucose) was 4.43. The “Cytotoxicity (TC50)” value (HCT-8 cells [2]; 44 h treatment) was 36000 µM, the “Ratio (2DG/glucose) of HsHK1 Km” value (HsHK1) was 9.81 and the “Ratio (2DG/glucose) of HsHK1 Vmax” value (HsHK1) was 1.28. For the same molecule, the IC50 ([7]; read-out: CpHK IC50) was 5750 µM, the Ki ([7]; read-out: CpHK Ki) was 340 µM and the “Mode of inhibition of CpHK” value [7] was “competitive inhibitor”.

B1: HsHK1 (Homo sapiens) (protein)
chain: T1 sequence (P19367 1-917)
B1 showed a Km [8] of 265 µM, a Vmax [8] of 68.4 µmol/min and a Km [9] of 27 µM. It also gave a Vmax [9] of 53.3 µmol/min.

B2: CpHK (Cryptosporidium parvum Iowa II) (protein)
chain: T3 sequence (Q5CWT5 1-518)
B2 showed a Km [10] of 46 µM, a Vmax [10] of 155 µmol/min and a Km [11] of 204 µM. For the same molecule, the Vmax [11] was 112 µmol/min.
